One test deals with ACC2 (Homo sapiens, UniProt O00763). The experiment in a line: In vitro ACC2 inhibition assay (ADP-Glo). The test is classed as biochemical. The conditions noted are these: read-out: ACC2. A digest of the protocol:
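Enzyme (human ACC1 or ACC2) and compound, serially diluted 1:3 over 11 points from a 600 uM DMSO stock, were preincubated 15 min before substrate addition.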

For the next test, the target named is ACC1 (Homo sapiens, UniProt Q13085). The experiment in a line: In vitro ACC1 inhibition assay (ADP-Glo). It is filed as biochemical. The conditions noted are these: read-out: ACC1. As to the method: An exemplary procedure for the in vitro ACC inhibition assay, which can be used to determine the inhibitory action of compounds of the invention toward either ACC1 or ACC2, follows. The ADP-Glo™ Kinase Assay kit from Promega was used. The ADP-Glo™ Kinase Assay is a luminescent ADP detection assay to measure enzymatic activity by quantifying the amount of ADP produced during an enzyme reaction. The assay is performed in two steps; first, after the enzyme reaction, an equal volume of ADP-Glo™ Reagent is added to terminate the reaction and deplete the remaining ATP. Second, the Kinase Detection Reagent is added to simultaneously convert ADP to ATP and allow the newly synthesized ATP to be measured using a luciferase/luciferin reaction. Luminescence can be correlated to ADP concentrations by using an ATP-to-ADP conversion curve. The detailed procedure is as follows. 50 μL of the compound being tested (600 uM in DMSO) was added to a 384-well dilution plate. The compound was diluted 1:3 in succession in DMSO for each row for 11 wells. 0.5 μL ACC2 working solution was added to 384-well white Optiplate assay plate. 0.5 μL diluted compound solution in each column from step 2 to assay plate, each row containing 2 replicates. […] The plates were incubated at room temperature for 15 minutes. 5 μL substrate working solution was added to each well to initiate reaction. […] Plates were incubated at room temperature for 60 minutes. 10 μL ADP glo reagent was added. Plates were incubated at room temperature for 40 minutes. 20 μL kinase detection reagent was added.
Data for each concentration, as well as the positive and negative controls were averaged, and the standard deviation calculated. Percent inhibition was calculated by the formula: 100× (average negative control−compound)/(average negative control−average positive control). The IC50 for each compound was calculated by fitting the data with a non-linear regression equation: Y=Bottom+(Top-Bottom)/(1+10^((Log IC50−X)*HillSlope)), where X is the log of compound concentration and Y is percent inhibition.
The compound numbers correspond to the compound numbers in Table 1.

ACC2, sequence (O00763 whole entry, species assumed): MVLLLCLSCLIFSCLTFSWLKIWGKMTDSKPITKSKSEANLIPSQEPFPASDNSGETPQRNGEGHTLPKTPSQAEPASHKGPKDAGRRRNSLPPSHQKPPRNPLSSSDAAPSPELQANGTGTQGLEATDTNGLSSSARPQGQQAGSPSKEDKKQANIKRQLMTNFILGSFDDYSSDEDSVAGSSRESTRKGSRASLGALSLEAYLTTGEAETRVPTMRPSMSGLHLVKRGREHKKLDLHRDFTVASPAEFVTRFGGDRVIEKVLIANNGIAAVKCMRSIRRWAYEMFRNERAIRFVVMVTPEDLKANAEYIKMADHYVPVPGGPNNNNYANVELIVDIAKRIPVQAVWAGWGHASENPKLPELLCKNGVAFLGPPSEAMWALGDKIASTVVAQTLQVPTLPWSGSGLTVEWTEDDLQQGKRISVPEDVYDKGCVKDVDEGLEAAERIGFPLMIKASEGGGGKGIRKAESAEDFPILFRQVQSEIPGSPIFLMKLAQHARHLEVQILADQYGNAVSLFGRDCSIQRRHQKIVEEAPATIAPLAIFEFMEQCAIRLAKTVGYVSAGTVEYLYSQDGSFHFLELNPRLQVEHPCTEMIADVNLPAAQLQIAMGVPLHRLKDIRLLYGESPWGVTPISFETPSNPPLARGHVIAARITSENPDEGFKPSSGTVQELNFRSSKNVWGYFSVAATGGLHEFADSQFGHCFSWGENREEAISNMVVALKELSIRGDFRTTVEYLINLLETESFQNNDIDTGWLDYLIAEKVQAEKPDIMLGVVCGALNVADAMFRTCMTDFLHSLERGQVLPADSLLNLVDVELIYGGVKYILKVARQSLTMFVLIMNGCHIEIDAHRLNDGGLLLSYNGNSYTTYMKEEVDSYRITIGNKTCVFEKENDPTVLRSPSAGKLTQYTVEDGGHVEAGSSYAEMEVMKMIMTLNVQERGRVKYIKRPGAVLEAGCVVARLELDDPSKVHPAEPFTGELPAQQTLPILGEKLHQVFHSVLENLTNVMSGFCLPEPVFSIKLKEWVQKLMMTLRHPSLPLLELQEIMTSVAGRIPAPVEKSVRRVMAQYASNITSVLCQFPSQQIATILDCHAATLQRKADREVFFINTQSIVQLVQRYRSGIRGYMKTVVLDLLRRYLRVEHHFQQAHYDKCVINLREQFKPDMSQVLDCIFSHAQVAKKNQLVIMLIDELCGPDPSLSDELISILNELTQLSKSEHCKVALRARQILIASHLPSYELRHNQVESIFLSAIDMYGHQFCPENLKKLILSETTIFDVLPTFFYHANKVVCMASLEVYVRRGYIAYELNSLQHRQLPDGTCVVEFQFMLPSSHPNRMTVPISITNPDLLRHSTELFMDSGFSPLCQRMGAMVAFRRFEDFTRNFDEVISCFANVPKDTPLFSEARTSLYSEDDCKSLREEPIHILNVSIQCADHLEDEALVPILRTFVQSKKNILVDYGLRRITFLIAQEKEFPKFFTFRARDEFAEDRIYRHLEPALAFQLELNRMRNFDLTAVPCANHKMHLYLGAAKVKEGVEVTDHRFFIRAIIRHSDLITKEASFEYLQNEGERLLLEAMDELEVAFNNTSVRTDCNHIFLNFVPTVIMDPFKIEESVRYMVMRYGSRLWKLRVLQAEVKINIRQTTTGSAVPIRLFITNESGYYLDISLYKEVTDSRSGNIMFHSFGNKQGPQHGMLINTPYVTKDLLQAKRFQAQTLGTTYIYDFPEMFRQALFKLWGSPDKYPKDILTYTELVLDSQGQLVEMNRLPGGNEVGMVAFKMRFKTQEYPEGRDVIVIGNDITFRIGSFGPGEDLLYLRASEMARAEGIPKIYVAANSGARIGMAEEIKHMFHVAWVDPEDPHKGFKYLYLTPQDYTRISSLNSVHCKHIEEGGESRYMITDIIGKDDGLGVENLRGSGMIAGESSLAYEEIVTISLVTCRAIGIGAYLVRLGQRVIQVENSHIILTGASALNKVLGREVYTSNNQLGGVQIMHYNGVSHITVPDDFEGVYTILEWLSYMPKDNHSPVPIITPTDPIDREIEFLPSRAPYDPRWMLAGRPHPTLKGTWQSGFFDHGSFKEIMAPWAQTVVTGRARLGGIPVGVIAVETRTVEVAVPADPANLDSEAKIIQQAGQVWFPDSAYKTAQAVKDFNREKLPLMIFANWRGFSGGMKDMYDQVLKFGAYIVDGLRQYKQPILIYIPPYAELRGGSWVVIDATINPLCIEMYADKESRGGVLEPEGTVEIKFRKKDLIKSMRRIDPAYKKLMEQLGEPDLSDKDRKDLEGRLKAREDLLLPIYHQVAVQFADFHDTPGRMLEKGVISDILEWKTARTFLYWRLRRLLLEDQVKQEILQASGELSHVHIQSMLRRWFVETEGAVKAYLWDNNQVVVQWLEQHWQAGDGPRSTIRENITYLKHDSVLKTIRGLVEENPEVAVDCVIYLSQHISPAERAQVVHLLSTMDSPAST

On to `CCOC(=O)c1sc2c(c1C)c(=O)n(CC(=O)O)c(=O)n2CCc1ccccc1Cl` [I-31, 2-[1-[2-(2-chlorophenyl)ethyl]-6-(ethoxycarbonyl)-5-methyl-2,4-dioxo-1H,2H,3H,4H-thieno[2,3-d]pyrimidin-3-yl]acetic acid], for which the IC50 at ACC2 and at ACC1 was less than 5000 nM each time.

Turning to `CCOC(=O)c1sc2c(c1C)c(=O)n(CC(=O)O)c(=O)n2CCc1ccccc1F` [I-32, 2-[6-(ethoxycarbonyl)-1-[2-(2-fluorophenyl)ethyl]-5-methyl-2,4-dioxo-1H,2H,3H,4H-thieno[2,3-d]pyrimidin-3-yl]acetic acid], the IC50 on ACC2 and on ACC1 was less than 5000 nM throughout.

`CCOC(=O)c1sc2c(c1C)c(=O)n(CC(=O)O)c(=O)n2CCc1c(F)cccc1F` [I-33, 2-[1-[2-(2,6-difluorophenyl)ethyl]-6-(ethoxycarbonyl)-5-methyl-2,4-dioxo-1H,2H,3H,4H-thieno[2,3-d]pyrimidin-3-yl]acetic acid]: the IC50 on ACC2 and at ACC1 was 5000 to 20000 nM in each case.

Consider `CCOC(=O)c1sc2c(c1C)c(=O)n(Cc1nnn[nH]1)c(=O)n2CCc1ccccc1` [I-45, ethyl 5-methyl-2,4-dioxo-1-(2-phenylethyl)-3-(1H-1,2,3,4-tetrazol-5-ylmethyl)-1H,2H,3H,4H-thieno[2,3-d]pyrimidine-6-carboxylate], for which the IC50 on ACC2 and at ACC1 was less than 5000 nM in each case.

For `CCOC(=O)c1sc2c(c1C)c(=O)n(CCC(=O)O)c(=O)n2CCc1ccccc1` [I-46, 3-[6-(ethoxycarbonyl)-5-methyl-2,4-dioxo-1-(2-phenylethyl)-1H,2H,3H,4H-thieno[2,3-d]pyrimidin-3-yl]propanoic acid], the IC50 on ACC2 and at ACC1 was less than 5000 nM in each case.

Take `CCOC(=O)c1sc2c(c1C)c(=O)n(CCS(C)(=O)=O)c(=O)n2CCc1ccccc1` [I-52]: the IC50 on ACC2 and on ACC1 was greater than 50000 nM each time.

For the compound `CCOC(=O)c1sc2c(c1C)c(=O)n(CCC(N)=O)c(=O)n2CCc1ccccc1` [I-55, ethyl 3-(2-carbamoylethyl)-5-methyl-2,4-dioxo-1-(2-phenylethyl)-1H,2H,3H,4H-thieno[2,3-d]pyrimidine-6-carboxylate], the IC50 on ACC2 and on ACC1 was less than 5000 nM each time.

As for `CCOC(=O)c1sc2c(c1C)c(=O)n(CC(=O)O)c(=O)n2CC(O)c1ccccc1` (stereo not drawn) [I-60, 2-[6-(ethoxycarbonyl)-1-(2-hydroxy-2-phenylethyl)-5-methyl-2,4-dioxo-1H,2H,3H,4H-thieno[2,3-d]pyrimidin-3-yl]acetic acid], the IC50 on ACC2 and on ACC1 was less than 5000 nM throughout.

On to `CCOC(=O)c1sc2c(c1C)c(=O)n(CCc1nnn[nH]1)c(=O)n2CCc1ccccc1` [I-61], for which the IC50 on ACC2 and on ACC1 was less than 5000 nM throughout.

For `CCOC(=O)c1sc2c(c1C)c(=O)n(C(C)(C)C(=O)O)c(=O)n2CCc1ccccc1` [I-70, 2-[6-(ethoxycarbonyl)-5-methyl-2,4-dioxo-1-(2-phenylethyl)-1H,2H,3H,4H-thieno[2,3-d]pyrimidin-3-yl]-2-methylpropanoic acid], the IC50 at ACC2 and on ACC1 was less than 1000 nM in each case.

Take `CCOC(=O)c1sc2c(c1C)c(=O)n(CC(=O)O)c(=O)n2CC(OC(C)C)c1ccccc1` (stereo not drawn) [I-89, 2-[6-(ethoxycarbonyl)-5-methyl-2,4-dioxo-1-[2-phenyl-2-(propan-2-yloxy)ethyl]-1H,2H,3H,4H-thieno[2,3-d]pyrimidin-3-yl]acetic acid]: the IC50 on ACC2 and on ACC1 was less than 1000 nM throughout.

Take `CCOC(=O)c1sc2c(c1C)c(=O)n(C(C)(C)C(=O)O)c(=O)n2CCc1ccccc1OC` [I-93, 2-[6-(ethoxycarbonyl)-1-[2-(2-methoxyphenyl)ethyl]-5-methyl-2,4-dioxo-1H,2H,3H,4H-thieno[2,3-d]pyrimidin-3-yl]-2-methylpropanoic acid]: the IC50 on ACC2 and at ACC1 was less than 1000 nM throughout.

As for `CCOC(=O)c1sc2c(c1C)c(=O)n(C(C)(C)C(=O)O)c(=O)n2CCc1ccccc1CC` [I-100, 2-[6-(ethoxycarbonyl)-1-[2-(2-ethylphenyl)ethyl]-5-methyl-2,4-dioxo-1H,2H,3H,4H-thieno[2,3-d]pyrimidin-3-yl]-2-methylpropanoic acid], the IC50 was less than 1000 nM on ACC2 and less than 100 nM at ACC1.

For the compound `CCOC(=O)c1sc2c(c1C)c(=O)n(C(C)(C)C(=O)O)c(=O)n2C[C@H](OC(C)C)c1ccccc1` [I-108, 2-[6-(ethoxycarbonyl)-5-methyl-2,4-dioxo-1-[(2R)-2-phenyl-2-(propan-2-yloxy)ethyl]-1H,2H,3H,4H-thieno[2,3-d]pyrimidin-3-yl]-2-methylpropanoic acid], the IC50 at ACC2 was less than 1000 nM; on ACC1, less than 100 nM.

Turning to `CCOC(=O)c1sc2c(c1C)c(=O)n(C(C)(C)C(=O)O)c(=O)n2C[C@H](OC)c1ccccc1` [I-110, 2-[6-(ethoxycarbonyl)-1-[(2R)-2-methoxy-2-phenylethyl]-5-methyl-2,4-dioxo-1H,2H,3H,4H-thieno[2,3-d]pyrimidin-3-yl]-2-methylpropanoic acid], the IC50 at ACC2 and on ACC1 was less than 1000 nM throughout.

Regarding `CCOC(=O)c1sc2c(c1C)c(=O)n(CC(N)=O)c(=O)n2C[C@H](OC(C)C)c1ccccc1` [I-112, ethyl 3-(carbamoylmethyl)-5-methyl-2,4-dioxo-1-[(2R)-2-phenyl-2-(propan-2-yloxy)ethyl]-1H,2H,3H,4H-thieno[2,3-d]pyrimidine-6-carboxylate], the IC50 on ACC2 is less than 1000 nM; at ACC1, less than 100 nM.

As to `CCOC(=O)c1sc2c(c1C)c(=O)n(C(C)(C)C(N)=O)c(=O)n2C[C@H](OC(C)C)c1ccccc1` [I-115, ethyl 3-(1-carbamoyl-1-methylethyl)-5-methyl-2,4-dioxo-1-[(2R)-2-phenyl-2-(propan-2-yloxy)ethyl]-1H,2H,3H,4H-thieno[2,3-d]pyrimidine-6-carboxylate], the IC50 at ACC2 and on ACC1 was less than 1000 nM each time.

Regarding `Cc1c(-c2ncco2)sc2c1c(=O)n(C(C)(C)C(=O)O)c(=O)n2C[C@H](OC(C)C)c1ccccc1` [I-119, 2-methyl-2-[5-methyl-6-(1,3-oxazol-2-yl)-2,4-doxo-1-[(2R)-2-phenyl-2-(propan-2-yloxy)ethyl]-1H,2H,3H,4H-thieno[2,3-d]pyrimidin-3-yl]propanoic acid], the IC50 at ACC2 is less than 1000 nM; on ACC1, less than 100 nM.

For the compound `Cc1c(-c2ncco2)sc2c1c(=O)n(C(C)(C)C(N)=O)c(=O)n2C[C@H](OC(C)C)c1ccccc1` [I-121, 2-methyl-2-[5-methyl-6-(1,3-oxazol-2-yl)-2,4-dioxo-1-[(2R)-2-phenyl-2-(propan-2-yloxy)ethyl]-1H,2H,3H,4H-thieno[2,3-d]pyrimidin-3-yl]propanamide], the IC50 on ACC2 and on ACC1 was less than 1000 nM throughout.

`CCOC(=O)c1sc2c(c1C)c(=O)n(C(C)(C)C(=O)O)c(=O)n2C[C@H](OCC(C)C)c1ccccc1` [I-123, 2-[6-(ethoxycarbonyl)-5-methyl-1-[(2R)-2-(2-methylpropoxy)-2-phenylethyl]-2,4-dioxo-1H,2H,3H,4H-thieno[2,3-d]pyrimidin-3-yl]-2-methylpropanoic acid]: the IC50 on ACC2 is less than 1000 nM; on ACC1 it was less than 100 nM.

With `CCOC(=O)c1sc2c(c1C)c(=O)n(C(C)(C)C(=O)O)c(=O)n2C[C@H](O[C@H](C)CC)c1ccccc1` [I-130, 2-[1-[(2R)-2-[(2R)-butan-2-yloxy]-2-phenylethyl]-6-(ethoxycarbonyl)-5-methyl-2,4-dioxo-1H,2H,3H,4H-thieno[2,3-d]pyrimidin-3-yl]-2-methylpropanoic acid], the IC50 is less than 1000 nM at ACC2 and less than 100 nM on ACC1.

As to `CCc1ccccc1CCn1c(=O)n(C(C)(C)C(=O)O)c(=O)c2c(C)c(-c3ncco3)sc21` [I-133, 2-[1-[2-(2-ethylphenyl)ethyl]-5-methyl-6-(1,3-oxazol-2-yl)-2,4-dioxo-1H,2H,3H,4H-thieno[2,3-d]pyrimidin-3-yl]-2-methylpropanoic acid], the IC50 on ACC2 was less than 1000 nM; at ACC1, less than 100 nM.

Take `CCc1ccccc1CCn1c(=O)n(C(C)(C)C(N)=O)c(=O)c2c(C)c(-c3ncco3)sc21` [I-134, 2-[1-[2-(2-ethylphenyl)ethyl]-5-methyl-6-(1,3-oxazol-2-yl)-2,4-dioxo-1H,2H,3H,4H-thieno[2,3-d]pyrimidin-3-yl]-2-methylpropanamide]: the IC50 on ACC2 and at ACC1 was less than 1000 nM each time.

Take `CCOc1ccccc1CCn1c(=O)n(C(C)(C)C(=O)O)c(=O)c2c(C)c(-c3ncco3)sc21` [I-135, 2-[1-[2-(2-ethoxyphenyl)ethyl]-5-methyl-6-(1,3-oxazol-2-yl)-2,4-dioxo-1H,2H,3H,4H-thieno[2,3-d]pyrimidin-3-yl]-2-methylpropanoic acid]: the IC50 was less than 1000 nM on ACC2 and less than 100 nM on ACC1.
